Measurements taken from patent US10597388B2, “Pyridazinone herbicides” (FMC CORPORATION, priority 2014, dated 2020).

Key:
Experiment in all cases: Test E greenhouse herbicide test, pre- and postemergence
Assay type in all cases: in vivo
Settings in all cases: Postemergence
[1] = system: Italian ryegrass (Lolium multiflorum)
In short: (§1)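 Compounds in surfactant-containing solvent are applied to soil right after sowing (silt loam) and, in parallel, to 1- to 4-leaf plants in a peat-based medium. Weed control is scored visually on a 0 (none) to 100 (complete) scale at 14 to 21 d.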

[2] = system: barnyardgrass (Echinochloa crus-galli)
In short: as §1

[3] = system: corn (Zea mays)
In short: as §1

[4] = system: crabgrass, Brazilian (Brazilian crabgrass, Digitaria horizontalis)
In short: as §1

[5] = system: kochia (Kochia scoparia)
In short: as §1

[6] = system: pigweed, palmer (palmer pigweed, Amaranthus palmeri)
In short: as §1

[7] = system: ragweed (common ragweed, Ambrosia elatior)
In short: as §1

[8] = system: sandbur (southem sandbur, Cenchrus echinatus)
In short: as §1

[9] = system: waterhemp (common waterhemp, Amaranthus rudis)
In short: as §1

[10] = 62 g ai/ha, scale 0 to 100 (0 no effect, 100 complete control)
[11] = 125 g ai/ha, scale 0 to 100 (0 no effect, 100 complete control)
[12] = 250 g ai/ha, scale 0 to 100 (0 no effect, 100 complete control)
[13] = 31 g ai/ha, visual, scale 0 no effect to 100 complete control

SMILES	Plant response rating, Ryegrass, Italian [1, 10]	Plant response rating, Ryegrass, Italian [1, 11]	Plant response rating, Ryegrass, Italian [1, 12]	Plant response rating, Ryegrass, Italian [1, 13]	Plant response rating, Barnyardgrass [2, 10]	Plant response rating, Barnyardgrass [2, 11]	Plant response rating, Barnyardgrass [2, 12]	Plant response rating, Barnyardgrass [2, 13]	Plant response rating, Corn [3, 10]	Plant response rating, Corn [3, 11]	Plant response rating, Corn [3, 12]	Plant response rating, Corn [3, 13]	Plant response rating, Crabgrass, Brazil [4, 10]	Plant response rating, Crabgrass, Brazil [4, 11]	Plant response rating, Crabgrass, Brazil [4, 12]	Plant response rating, Crabgrass, Brazil [4, 13]	Plant response rating, Kochia [5, 10]	Plant response rating, Kochia [5, 11]	Plant response rating, Kochia [5, 12]	Plant response rating, Kochia [5, 13]	other results
CSCC(=O)Oc1c(C)nn(C)c(=O)c1-c1cccc2ccccc12 [Compound 171]	75	85	90	65	45	50	50	40	0	0	0	0	50	50	60	40	95	100	100	90	Plant response rating, Pigweed, Palmer [6, 10]: 50; Plant response rating, Pigweed, Palmer [6, 11]: 60; Plant response rating, Pigweed, Palmer [6, 12]: 70; Plant response rating, Pigweed, Palmer [6, 13]: 50; Plant response rating, Ragweed [7, 10]: 75; Plant response rating, Ragweed [7, 11]: 90; Plant response rating, Ragweed [7, 12]: 98; Plant response rating, Ragweed [7, 13]: 60; Plant response rating, Sandbur [8, 11]: 50; Plant response rating, Sandbur [8, 12]: 60; Plant response rating, Sandbur [8, 13]: 30; Plant response rating, Waterhemp [9, 11]: 85; Plant response rating, Waterhemp [9, 12]: 90; Plant response rating, Waterhemp [9, 13]: 80
COc1nn(C)c(=O)c(-c2c(C)sc3ccc(Cl)cc23)c1O [Compound 100]	60	70	85	50	40	30	50	30	5	0	0	0	50	40	50	25	80	80	100	60	Plant response rating, Pigweed, Palmer [6, 10]: 30; Plant response rating, Pigweed, Palmer [6, 11]: 40; Plant response rating, Pigweed, Palmer [6, 12]: 50; Plant response rating, Pigweed, Palmer [6, 13]: 20; Plant response rating, Ragweed [7, 10]: 85; Plant response rating, Ragweed [7, 11]: 90; Plant response rating, Ragweed [7, 12]: 90; Plant response rating, Ragweed [7, 13]: 75; Plant response rating, Sandbur [8, 11]: 40; Plant response rating, Sandbur [8, 12]: 50; Plant response rating, Sandbur [8, 13]: 20; Plant response rating, Waterhemp [9, 12]: 90; Plant response rating, Waterhemp [9, 13]: 80
CCC(=O)Oc1c(C)nn(C)c(=O)c1-c1c(C)sc2ccc(C)cc12 [Compound 42]	70	85	90	50	30	30	35	20	15	15	20	10	35	40	50	20	85	95	98	75	Plant response rating, Pigweed, Palmer [6, 10]: 75; Plant response rating, Pigweed, Palmer [6, 11]: 60; Plant response rating, Pigweed, Palmer [6, 12]: 95; Plant response rating, Pigweed, Palmer [6, 13]: 70; Plant response rating, Ragweed [7, 10]: 85; Plant response rating, Ragweed [7, 11]: 95; Plant response rating, Ragweed [7, 12]: 90; Plant response rating, Ragweed [7, 13]: 90; Plant response rating, Sandbur [8, 10]: 50; Plant response rating, Sandbur [8, 11]: 60; Plant response rating, Sandbur [8, 12]: 60; Plant response rating, Sandbur [8, 13]: 35; Plant response rating, Waterhemp [9, 10]: 80; Plant response rating, Waterhemp [9, 11]: 100; Plant response rating, Waterhemp [9, 12]: 90; Plant response rating, Waterhemp [9, 13]: 75
